Measured values: patent publication US11091786B2, “Butelase-mediated peptide ligation” (Nanyang Technological University, priority 2015, dated 2021)
In brackets after ≈: the same amount, converted by molar mass. Bridge positions count the residues as written; N and C are the ends. Square brackets hold non-standard residues; d marks the D form. Peptide text beside a SMILES is read from it. I, II: the chains in the order shown. βAla = NCCC(=O)O

Assays:
Format in all cases: cell-based
K. species DR 13779 = conditions: 18 h
Protocol: (§1) The following protocol was applied to the radial diffusion assay.
(§2) 1. A single colony was picked and transferred into a 5 ml tube containing 2.5 ml TSB. The culture was shaken at 37° C. for 18 h.
(§3) 2. 50 μl of the stationary phase culture was diluted to 2.5 mL of autoclaved TSB (1:50 dilution) and shaken at 37° C. for another 3 h.
(§4) 3. This subculture was centrifuged at 5000 rpm for 5 min and the supernatant was discarded. The residual cells were washed with cold sterile 10 mM phosphate buffer, pH 7.4 and the buffer was discarded after centrifuge. 5 ml of the same buffer was added to resuspend the cells and its bacteria concentration was determined by measuring its optical density at 620 nm.
(§5) 4. 10 ml of antoclaved, molten underlay gel agar was transferred to a 15-ml eppendorf tube and mixed with 4×10^6 CFU of bacteria by vortexing. The mixture was then poured into a petri dish and gelled in less than […]. Wells were punched against the gel using a Pasteur pippette.
(§6) 5. Peptides to be tested were serially diluted and 3.5 μl of each sample was added to the well. The plates were incubated at 37° C. for 3 h with gel-side up.
(§7) 6. Next, each underlay gel was covered with 10 ml of overlay gel. After the gel solidified, the plates were turned gel-side up and incubated at 37° C. for overnight.
(§8) 7. The following morning, all the plates were taken out and the zone diameters were measured with ruler. All the samples were tested in duplicates and the results were averaged. The final minimum inhibition concentration (MIC) was determined using excel.
(§9) There is a growing interest to develop peptide-based antibiotics (Annu Rev Immunol. 1995, 13, 61-92; J Intern Med. 2003, 254, 197-215; Cent Eur J Biol 2007, 2, 1-33; Int J Pept Res Ther. 2010, 16, 199-213) because, compared with conventional antibiotics, they are less likely to develop drug resistance and have fewer side effects (J Med Chem. 2015, 58, 6533-6548; Biochemistry-Us. 2000, 39, 7159-7169; Eur J Biochem. 2000, 267, 3289-3300; Nucleic Acids Res. 2012, 40, W199-204). To apply the presently disclosed enzymatic method in preparing dendrimeric antimicrobials, inventors synthesized two antimicrobials 12 (bivalent) and 13 (tetravalent) (MS shown in supporting information) which harbored a tetrapeptide RLYR (SEQ ID NO:121) as the antibacterial sequence (Eur J Biochem. 2002, 269, 923-932) by ligating N-acetylated thiodepsipeptide 10 Ac-RLYRN-thioglc-V (SEQ ID NO:120) with dendron core 2 and 6 respectively. The RLYR (SEQ ID NO:121) tetrapeptide contains a BHHB motif (B=basic, H=hydrophobic) which is commonly found in certain potent and broad-spectrum β-stranded antimicrobial peptides (BioDrugs. 2013, 27, 479-493) such as PG (protegrins) (Febs Lett. 1993, 327, 231-236) and RTD-1 (rhesus monkey theta defensin) (Science. 1999, 286, 498-502). This consensus motif with positive charged and hydrophobic residues was successfully used as a dendrimeric antimicrobial in 2002 (Eur J Biochem. 2002, 269, 923-932). Such short peptide-based dendrimeric antimicrobials are broad-spectrum antibiotics and kill bacterial cells through electrostatic and hydrophobic interactions with the negatively charged microbial cytoplasmic membranes (Biochemistry-Us. 2009, 48, 5642-5657). Using a radial diffusion assay, inventors tested the antimicrobial activities against E. coli and S. aureus of these two dendrimeric peptides together with prototypical monomer 11 RLYR (SEQ ID NO:121), mono-, tri-lysine dendron core 2 and 6 for comparison. All assays were performed under a high-salt condition (100 mM NaCl) to simulate physiological conditions. […] The tetravalent dendrimeric structure 13 had further improved antimicrobial activities with MICs<3 μM against both strains. When testing 13 against several drug-resistant strains under high-salt condition, the tetramer construct was broadly active against all six tested strains with MICs ranging from 0.87 to 4.8 μM. […]

E. coli DU 09777 = conditions: DU 09777, 18 h
Protocol: as §1, §2, §3, §4, §5, §6, §7, §8, §9

drug-resistant strains = test system: drug-resistant strains
Protocol: as §1, §2, §3, §4, §5, §6, §7, §8, §9

S. aureus DB 14329 = conditions: DB 14329, 18 h
Protocol: as §1, §2, §3, §4, §5, §6, §7, §8, §9

P. aeruginosa DM 14158 = conditions: DM 14158, 18 h
Protocol: as §1, §2, §3, §4, §5, §6, §7, §8, §9

E. cloacae DM 09800 = conditions: DM 09800, 18 h
Protocol: as §1, §2, §3, §4, §5, §6, §7, §8, §9

E. coli DM 04604 = conditions: DM 04604, 18 h
Protocol: as §1, §2, §3, §4, §5, §6, §7, §8, §9

CC[C@H](C)[C@H](NC(=O)[C@H](CCCNC(=N)N)NC(=O)[C@H](CC(N)=O)NC(=O)[C@H](CCCNC(=N)N)NC(=O)[C@H](Cc1ccc(O)cc1)NC(=O)[C@H](CC(C)C)NC(=O)[C@H](CCCNC(=N)N)NC(C)=O)C(=O)NCCC(=O)NCCCC[C@H](NC(=O)CCNC(=O)[C@@H](NC(=O)[C@H](CCCNC(=N)N)NC(=O)[C@H](CC(N)=O)NC(=O)[C@H](CCCNC(=N)N)NC(=O)[C@H](Cc1ccc(O)cc1)NC(=O)[C@H](CC(C)C)NC(=O)[C@H](CCCNC(=N)N)NC(C)=O)[C@@H](C)CC)C(=O)NCCCC[C@H](NC(=O)[C@H](CCCCNC(=O)CCNC(=O)[C@@H](NC(=O)[C@H](CCCNC(=N)N)NC(=O)[C@H](CC(N)=O)NC(=O)[C@H](CCCNC(=N)N)NC(=O)[C@H](Cc1ccc(O)cc1)NC(=O)[C@H](CC(C)C)NC(=O)[C@H](CCCNC(=N)N)NC(C)=O)[C@@H](C)CC)NC(=O)CCNC(=O)[C@@H](NC(=O)[C@H](CCCNC(=N)N)NC(=O)[C@H](CC(N)=O)NC(=O)[C@H](CCCNC(=N)N)NC(=O)[C@H](Cc1ccc(O)cc1)NC(=O)[C@H](CC(C)C)NC(=O)[C@H](CCCNC(=N)N)NC(C)=O)[C@@H](C)CC)C(=O)N[C@@H](Cc1ccc(O)cc1)C(N)=O [Tetramer 13, (Ac-RLYRNRIβA)4K2KY] (I: Ac-RLYRNRI[βAla]KKY-NH2 / II: Ac-RLYRNRI[βAla]K / III: Ac-RLYRNRI[βAla] / IV: Ac-RLYRNRI[βAla]; amide I:9-IV:C, I:10-II:C, II:9-III:C)
MIC (K. species DR 13779): 1.5 µM (≈ 7.36 µg/mL) | MIC (E. coli DU 09777): 2.2 µM (≈ 10.8 µg/mL) | MICs, broad-spectrum (drug-resistant strains; all strains tested, including several drug-resistant bacterial strains): < 5 µM | MICs against all six tested drug-resistant strains (drug-resistant strains; six drug-resistant strains, high-salt condition): 0.87 to 4.8 µM | MIC (S. aureus DB 14329): 4.8 µM (≈ 23.5 µg/mL) | MIC (P. aeruginosa DM 14158): 2.3 µM (≈ 11.3 µg/mL) | MIC (E. cloacae DM 09800): 0.9 µM (≈ 4.42 µg/mL) | MIC (E. coli DM 04604): 4.5 µM (≈ 22.1 µg/mL)
